In PubChem BioAssay (NCI):
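Cultured in 96-well plates, cells were exposed to test compound for 48 hours across five concentrations. At the TGI there is no net growth.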

How the values were obtained:
Test in all cases: NCI anticancer screen, dose series, 48 h
OVCAR-3 ovarian = system: OVCAR-3 ovarian
NCI-H23 lung = system: NCI-H23 lung
NCI-H226 lung = system: NCI-H226 lung
HCT-15 colon = system: HCT-15 colon
BT-549 breast = system: BT-549 breast
SF-268 CNS = system: SF-268 CNS
KM12 colon = system: KM12 colon
MCF7 breast = system: MCF7 breast
HOP-62 NSCLC = system: HOP-62 NSCLC
NCI-H522 lung = system: NCI-H522 lung
MDA-MB-231 breast = system: MDA-MB-231 breast
SF-295 CNS = system: SF-295 CNS
786-0 renal = system: 786-0 renal
DU-145 prostate = system: DU-145 prostate
UO-31 renal = system: UO-31 renal
NCI/ADR-RES ovarian = system: NCI/ADR-RES ovarian
OVCAR-5 ovarian = system: OVCAR-5 ovarian
LOX IMVI melanoma = system: LOX IMVI melanoma
HOP-92 NSCLC = system: HOP-92 NSCLC
SK-OV-3 ovarian = system: SK-OV-3 ovarian
HS 578T breast = system: HS 578T breast
A498 renal = system: A498 renal
UACC-62 melanoma = system: UACC-62 melanoma
OVCAR-4 ovarian = system: OVCAR-4 ovarian
EKVX NSCLC = system: EKVX NSCLC
HCT-116 colon = system: HCT-116 colon
PC-3 prostate = system: PC-3 prostate
MALME-3M melanoma = system: MALME-3M melanoma
HCC-2998 colon = system: HCC-2998 colon
SNB-75 CNS = system: SNB-75 CNS
SNB-19 CNS = system: SNB-19 CNS
TK-10 renal = system: TK-10 renal
CAKI-1 renal = system: CAKI-1 renal
SK-MEL-28 melanoma = system: SK-MEL-28 melanoma
MDA-N = system: MDA-N
SR leukemia = system: SR leukemia
RXF 393 renal = system: RXF 393 renal
SK-MEL-5 melanoma = system: SK-MEL-5 melanoma
RPMI-8226 leukemia = system: RPMI-8226 leukemia
SK-MEL-2 melanoma = system: SK-MEL-2 melanoma
IGROV1 ovarian = system: IGROV1 ovarian
A549 NSCLC = system: A549 NSCLC
COLO 205 colon = system: COLO 205 colon
MDA-MB-435 = system: MDA-MB-435
M14 melanoma = system: M14 melanoma
SF-539 CNS = system: SF-539 CNS
ACHN renal = system: ACHN renal
U251 CNS = system: U251 CNS
SW-620 colon = system: SW-620 colon
NCI-H460 lung = system: NCI-H460 lung
K-562 leukemia = system: K-562 leukemia
HT29 colon = system: HT29 colon
SN12C renal = system: SN12C renal
OVCAR-8 ovarian = system: OVCAR-8 ovarian
UACC-257 melanoma = system: UACC-257 melanoma
MOLT-4 leukemia = system: MOLT-4 leukemia
HL-60(TB) leukemia = system: HL-60(TB) leukemia
CCRF-CEM leukemia = system: CCRF-CEM leukemia

In the case of `CC(C)COC(c1ccc2c(c1)OCO2)C(C)Br` (centres undefined), the TGI (OVCAR-3 ovarian) is reported as 34.8 µM, the TGI (NCI-H23 lung) is reported as 72.9 µM and the TGI (NCI-H226 lung) is reported as 70.7 µM. For the same compound, the TGI (HCT-15 colon) was 66.1 µM, the TGI (BT-549 breast) was greater than 100 µM and the TGI (SF-268 CNS) was 59.7 µM. The TGI (KM12 colon) was 55 µM, the TGI (MCF7 breast) was 86.9 µM and the TGI (HOP-62 NSCLC) was 77.9 µM. For the same compound, the TGI (NCI-H522 lung) was 37.8 µM, the TGI (MDA-MB-231 breast) was greater than 100 µM and the TGI (SF-295 CNS) was 53.6 µM. It also gave a TGI (786-0 renal) of 62.3 µM, a TGI (DU-145 prostate) greater than 100 µM and a TGI (UO-31 renal) of 67.5 µM. It also gave a TGI (NCI/ADR-RES ovarian) of 90.2 µM, a TGI (OVCAR-5 ovarian) of 49.3 µM and a TGI (LOX IMVI melanoma) of 35.4 µM. For the same compound, the TGI (HOP-92 NSCLC) was 68.8 µM, the TGI (SK-OV-3 ovarian) was 80 µM and the TGI (HS 578T breast) was 64.6 µM. It also gave a TGI (A498 renal) greater than 100 µM, a TGI (UACC-62 melanoma) greater than 100 µM and a TGI (OVCAR-4 ovarian) greater than 100 µM. The TGI (EKVX NSCLC) was 76 µM, the TGI (HCT-116 colon) was 38.7 µM and the TGI (PC-3 prostate) was greater than 100 µM. It also gave a TGI (MALME-3M melanoma) of 36.1 µM, a TGI (HCC-2998 colon) of 38.6 µM and a TGI (SNB-75 CNS) of 55.7 µM. For the same compound, the TGI (SNB-19 CNS) was greater than 100 µM, the TGI (TK-10 renal) was greater than 100 µM and the TGI (CAKI-1 renal) was greater than 100 µM. It also gave a TGI (SK-MEL-28 melanoma) greater than 100 µM, a TGI (MDA-N) of 53.8 µM and a TGI (SR leukemia) of 46.1 µM. For the same compound, the TGI (RXF 393 renal) was 23.2 µM, the TGI (SK-MEL-5 melanoma) was 36.4 µM and the TGI (RPMI-8226 leukemia) was 43 µM. For the same compound, the TGI (SK-MEL-2 melanoma) was 44.3 µM, the TGI (IGROV1 ovarian) was greater than 100 µM and the TGI (A549 NSCLC) was greater than 100 µM. For the same compound, the TGI (COLO 205 colon) was 49.7 µM, the TGI (MDA-MB-435) was 51.7 µM and the TGI (M14 melanoma) was 50.9 µM. The TGI (SF-539 CNS) was 71.3 µM, the TGI (ACHN renal) was greater than 100 µM and the TGI (U251 CNS) was 93.8 µM. For the same compound, the TGI (SW-620 colon) was greater than 100 µM, the TGI (NCI-H460 lung) was 51.5 µM and the TGI (K-562 leukemia) was greater than 100 µM. For the same compound, the TGI (HT29 colon) was 45.5 µM, the TGI (SN12C renal) was 45 µM and the TGI (OVCAR-8 ovarian) was greater than 100 µM. For the same compound, the TGI (UACC-257 melanoma) was 55.5 µM.

`Cc1cc2cc3ccccc3cc2c(=O)[nH]1` showed a TGI (OVCAR-3 ovarian) greater than 10 µM, a TGI (NCI-H23 lung) greater than 10 µM and a TGI (NCI-H226 lung) greater than 10 µM. It also gave a TGI (BT-549 breast) greater than 10 µM, a TGI (SF-268 CNS) greater than 10 µM and a TGI (KM12 colon) greater than 10 µM. The TGI (MCF7 breast) was greater than 10 µM, the TGI (NCI-H522 lung) was greater than 10 µM and the TGI (SF-295 CNS) was greater than 10 µM. The TGI (786-0 renal) was greater than 10 µM, the TGI (MOLT-4 leukemia) was greater than 10 µM and the TGI (DU-145 prostate) was greater than 10 µM. It also gave a TGI (HL-60(TB) leukemia) greater than 10 µM, a TGI (UO-31 renal) greater than 10 µM and a TGI (OVCAR-5 ovarian) greater than 10 µM. The TGI (LOX IMVI melanoma) was greater than 10 µM, the TGI (HOP-92 NSCLC) was greater than 10 µM and the TGI (SK-OV-3 ovarian) was greater than 10 µM. For the same compound, the TGI (HS 578T breast) was greater than 10 µM, the TGI (UACC-62 melanoma) was greater than 10 µM and the TGI (OVCAR-4 ovarian) was greater than 10 µM. It also gave a TGI (EKVX NSCLC) greater than 10 µM, a TGI (HCT-116 colon) greater than 10 µM and a TGI (PC-3 prostate) greater than 10 µM. The TGI (SNB-75 CNS) was greater than 10 µM, the TGI (SNB-19 CNS) was greater than 10 µM and the TGI (TK-10 renal) was greater than 10 µM. It also gave a TGI (MDA-N) greater than 10 µM, a TGI (SR leukemia) greater than 10 µM and a TGI (RXF 393 renal) greater than 10 µM. For the same compound, the TGI (IGROV1 ovarian) was greater than 10 µM, the TGI (A549 NSCLC) was greater than 10 µM and the TGI (CCRF-CEM leukemia) was greater than 10 µM. For the same compound, the TGI (MDA-MB-435) was greater than 10 µM, the TGI (M14 melanoma) was greater than 10 µM and the TGI (SF-539 CNS) was greater than 10 µM. It also gave a TGI (ACHN renal) greater than 10 µM, a TGI (U251 CNS) greater than 10 µM and a TGI (SW-620 colon) greater than 10 µM. The TGI (NCI-H460 lung) was greater than 10 µM, the TGI (K-562 leukemia) was greater than 10 µM and the TGI (HT29 colon) was greater than 10 µM. It also gave a TGI (OVCAR-8 ovarian) greater than 10 µM and a TGI (UACC-257 melanoma) greater than 10 µM.
